Measurements: patent US11702428B2, “Chemical compounds as inhibitors of interleukin-1 activity” (Genentech, Inc., priority 2017, dated 2023)
Entries after “also recorded” stand apart in the source; their conditions may differ.

Legend:
pro-caspase-1 = test: Inhibition of Caspase1 activation in bone marrow derived macrophages (Western Blot); assay type: cell-based, mouse; details: 10 μM; BMDMs, LPS 100 ng/ml 3 hours, nigericin 10 μM 90 minutes
TNFα [1] = test: TNFα levels of LPS and nigericin stimulated cells (counter-screen); assay type: cell-based, human
Description: (§1) For ELISA assays cells were seeded into 96-well plates. Post study, supernatants were removed and the levels of mature IL-1β, IL-18 and TNFα (Quantikine ELISA, R&D systems) were measured in cell conditioned media by ELISA according to manufacturer's instructions.
TNFα levels of LPS and nigericin stimulated cells is measured by HTRF assay (Cisbio, Bedford, Mass.). […] Measuring TNFalpha production also serves as a technical counter-screen to eliminate compounds that interfere with the HTRF reagents. Thus compounds that inhibit both IL-1β and TNFα levels are triaged for either being non-selective for inflammasome or interfering with the HTRF readout.

[2] = Human microsomal stability (Eh); assay type: in vitro ADME; details: hepatic extraction ratio; 0.5 mg/mL microsomal protein, 1 μM, NADPH; liver blood flow 20.7 mL/min/kg
Description: The stock solutions of test article and positive control were prepared at a concentration of 10 mM using DMSO as diluents. All stock solutions were then diluted to working concentrations at 0.25 mM with 70% acetonitrile. The cofactor used in this study was NADPH regenerating system, that was composed of 6.5 mM NADP, 16.5 mM G-6-P, 3 U/mL G-6-P D. The quench reagent was consisted of acetonitrile containing tolbutamide and propanolol (serve as internal standard). Incubation mixtures containing 0.5 mg/mL liver microsomal protein and […] test article/positive control in 100 mM potassium phosphate buffer.
The 0-minute samples were prepared by addition of an 80 μL aliquot of each incubation mixture to 300 μL quench reagent to precipitate proteins. The samples were vortexed, and then a 20 μL aliquot of the NADPH regenerating system was added in. The reaction was initiated by addition of 80 μL of the NADPH regenerating system to 320 μL of each incubation mixture. The final incubation conditions achieved in 400 μL are: 0.5 mg/mL microsomal protein, 1 μM test article/positive control, 1.3 mM NADP, 3.3 mM glucose 6 phosphate, 0.6 U/mL glucose 6 phosphate dehydrogenase. The mixtures were incubated in a 37° C. water bath with gentle shaking. A 100 μL aliquot of each mixture was removed at 10, 30, 90 minutes to a clean 96-well plate which contains 300 μL quench reagent to precipitate proteins, and centrifuged (4000×g, 10 min). 80 μL of supernatant are taken into 96-well assay plates pre-added with 160 μL ultrapure water, and then analyzed by LC-MS/MS. Hepatic extraction ratio (Eh) values were calculated from measured in vitro clearance assuming a human liver blood flow of 20.7 mL/min/kg. Eh values of <0.3 are indicative of compounds with favorable metabolic stability.

NLRP3 inflammasome [3] = target: T1, NLRP3 inflammasome (Homo sapiens, UniProt Q96P20); test: NLRP3 inflammasome activation assay in PBMCs (LPS priming, nigericin), IL-1β by ELISA; assay type: cell-based; set-up: Human peripheral blood mononuclear cells (PBMCs); host or cells: primary human PBMCs from healthy donors; details: for IC50: LPS, nigericin, read-out: PBMC IL-1β IC50
T1 sequence (Q96P20 whole entry): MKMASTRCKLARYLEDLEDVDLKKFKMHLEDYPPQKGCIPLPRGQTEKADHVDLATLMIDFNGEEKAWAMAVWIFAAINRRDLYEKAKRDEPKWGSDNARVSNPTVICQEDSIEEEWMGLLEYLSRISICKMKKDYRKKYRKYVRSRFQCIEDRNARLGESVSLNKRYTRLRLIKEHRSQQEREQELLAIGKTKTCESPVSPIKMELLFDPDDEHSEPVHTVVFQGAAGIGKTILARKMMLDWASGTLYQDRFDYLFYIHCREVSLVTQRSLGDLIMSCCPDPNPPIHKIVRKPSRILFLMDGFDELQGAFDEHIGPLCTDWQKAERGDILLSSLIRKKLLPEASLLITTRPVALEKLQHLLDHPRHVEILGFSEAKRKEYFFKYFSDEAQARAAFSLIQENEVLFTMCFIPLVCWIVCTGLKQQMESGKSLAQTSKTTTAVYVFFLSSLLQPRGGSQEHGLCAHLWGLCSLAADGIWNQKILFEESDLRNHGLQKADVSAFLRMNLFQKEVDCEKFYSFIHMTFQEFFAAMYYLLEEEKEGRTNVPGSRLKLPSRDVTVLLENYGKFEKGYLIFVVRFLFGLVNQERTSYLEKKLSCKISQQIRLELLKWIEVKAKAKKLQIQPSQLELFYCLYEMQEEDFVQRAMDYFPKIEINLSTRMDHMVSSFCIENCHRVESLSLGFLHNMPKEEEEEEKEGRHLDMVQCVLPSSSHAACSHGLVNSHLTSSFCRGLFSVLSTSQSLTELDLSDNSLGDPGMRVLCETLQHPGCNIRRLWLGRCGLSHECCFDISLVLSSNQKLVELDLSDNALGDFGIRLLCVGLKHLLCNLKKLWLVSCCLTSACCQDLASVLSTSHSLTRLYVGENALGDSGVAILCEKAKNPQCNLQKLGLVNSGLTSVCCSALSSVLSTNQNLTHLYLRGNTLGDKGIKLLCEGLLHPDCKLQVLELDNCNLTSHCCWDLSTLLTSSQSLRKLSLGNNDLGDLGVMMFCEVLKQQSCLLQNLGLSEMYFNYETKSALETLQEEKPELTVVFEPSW
Summary of the method: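 Freshly isolated healthy-donor human PBMCs stimulated with 10 uM nigericin for 1.5 h. Mature IL-1β (also IL-18, TNFα) in conditioned supernatant measured by ELISA.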

NLRP3 inflammasome [4] = target: T1, NLRP3 inflammasome; test: NLRP3 inflammasome activation assay in Kupffer cells (LPS priming, nigericin), IL-1β/IL-18 by ELISA; assay type: cell-based; details: KCs; LPS, nigericin; read-out: KC IL-1β IC50
Excerpt: Some of the following assays were used to determine the inhibitory activity of the compounds on the NLRP3 inflammasome using a common inflammasome activation stimuli-nigericin.
Human Kupffer cells (KCs), specialized liver macrophages residing in […], were obtained by gradient isolation from liver specimens harvested post-mortem by Samsara Sciences. Cells were obtained through an IRB approved donor program by Samsara Sciences and all donors tested negative for bacterial and viral infections.
Cells were then stimulated with 10 uM Nigericin (Sigma Aldrich; InvivoGen) for 1.5 h. Plates were centrifuged at 1,500 rpm for 3 minutes to pellet cells and supernatant was transferred into new plates for subsequent experiments.
as §1

[5] = tested on: LPS and nigericin stimulated cells; test: cells; assay type: cell-based; details: Homo sapiens; LPS and nigericin stimulated cells, CellTiter-Glo; read-out: CTG protective IC50
Summary of the method: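 Counter-screen for cytotoxicity in LPS- and nigericin-stimulated, compound-treated cells. CellTiter-Glo luminescence reads cellular ATP as a proxy for live-cell number.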

TNFα [6] = test: LPS/ATP challenge model in C57BL/6 mice, TNFα in peritoneal lavage; assay type: in vivo; details: 3.5 hours post dose
Description: (§2) The purpose of this study was to determine the effects of Compounds 1 and 2 treatment on cytokine production after LPS/ATP injection in female C57BL/6 mice.
(§3) On Day −1 mice were weighed and assigned to groups per Table 2 (see below) in a balanced manner to achieve similar average weight across the groups at the start of the study.
(§4) All mice received a single dose of treatment or vehicle, at hour minus 1.
(§5) At hour 0, all mice received 1 μg of lipopolysaccharide, ultra pure (LPS, InvivoGen, San Diego, Calif.) in 0.5 ml PBS, intraperitoneally.
(§6) At hour 2 (two hours after LPS injection), all mice were injected intraperitoneally with 0.5 ml of 80 mM ATP disodium salt (Sigma, pH adjusted to 7.2 before injection).
(§7) At hour 2.5 (30 minutes after ATP injection and 3.5 hours after compound dosing), blood from all mice was collected via retro-orbital bleeding into K2 EDTA tubes and plasma was prepared and stored at […]. Samples were shipped to the customer or vendor of customers choosing within 7 days of completing the study.
(§8) Immediately after the collection of blood, each mouse was euthanized, the peritoneal cavity was lavaged with 3 ml of ice-cold PBS containing 25 U/ml heparin sodium salt, cocktail of protease inhibitors (Complete™ ULTRA Tablets, Sigma, Roche), and 10% FBS. Approximately 1 ml of the lavage was collected, spun down to remove cells and the supernatant stored at −80° C.
(§9) Compound powders were stored at 4° C. All compounds were prepared fresh. Compounds were weighed out and first ground with a mortar and pestle, then ground with a small amount of vehicle. The mortar was then repeatedly rinsed with vehicle to remove all material and achieve the correct concentration. The final solution was vortexed to create a homogeneous mixture
(§10) Mouse IL-1β and TNFα concentrations in peritoneal lavage samples were determined using Becton Dickinson (Franklin Lakes, N.J.) CBA analysis kit, according to manufacturer's protocol. A single analysis was performed on each sample.
(§11) Concentrations of cytokines were compared using Student t-test.

IL-1β = test: LPS/ATP challenge model in C57BL/6 mice, IL-1β in peritoneal lavage; assay type: in vivo; details: 3.5 hours post dose
Description: as §2, §3, §4, §5, §6, §7, §8, §9, §10, §11

| SMILES | activation of pro-caspase-1 (p45 and p10 bands, Western Blot) (pro-caspase-1) | TNFα IC50 (PBMC or KC) (TNFα [1]) | Human Microsomal Stability (Eh) [2] | IC50 (NLRP3 inflammasome [3]) [nM] | IC50 (NLRP3 inflammasome [4]) [nM] | IC50 [5] [nM] | Mean (IL-1β) (IL-1β; single oral dose 0.25 mg/kg) [pg/mL] | Mean (IL-1β) (IL-1β; single oral dose 1 mg/kg) [pg/mL] | Mean (IL-1β) (IL-1β; single oral dose 2.5 mg/kg) [pg/mL] | further results |
| --- | --- | --- | --- | --- | --- | --- | --- | --- | --- | --- |
| O=C(Nc1c2c(cc3c1CCC3)CCC2)NS(=O)(=O)c1cnn2c1CCCC2 [Compound 4, N-((1,2,3,5,6,7-hexahydro-s-indacen-4-yl)carbamoyl)-4,5,6,7-tetrahydropyrazolo[1,5-a]pyridine-3-sulfonamide] | blocked; also recorded: inhibition of activation |  |  |  |  |  |  |  |  |  |
| CO[C@H]1COc2c(S(=O)(=O)NC(=O)Nc3c4c(cc5c3CCC5)CCC4)cnn2C1 |  | No Curve | 0.3 | < 100 | < 100 | < 100 |  |  |  |  |
| CC1(C)COc2c(S(=O)(=O)NC(=O)Nc3c4c(cc5c3CCC5)CCC4)cnn2C1 [drawing 513] |  | No Curve | 0.5 | < 100 | < 100 | < 100 |  |  |  |  |
| CS(=O)(=O)NC(=O)Nc1c2c(cc3c1CCC3)CCC2 [Compound 2, N-((1,2,3,5,6,7-hexahydro-s-indacen-4-yl)carbamoyl)methanesulfonamide] | blocked; also recorded: inhibition of activation |  |  |  |  |  | 392.7 | 12.9 | 10.7 | % Decrease of TNFα vs. Vehicle (TNFα [6]; single oral dose 0.25 mg/kg): −12.5%; Mean (TNFα) (TNFα [6]; single oral dose 0.25 mg/kg): 384.7 pg/mL; % Decrease of TNFα vs. Vehicle (TNFα [6]; single oral dose 1 mg/kg): −15.5%; Mean (TNFα) (TNFα [6]; single oral dose 1 mg/kg): 394.9 pg/mL; % Decrease of TNFα vs. Vehicle (TNFα [6]; single oral dose 2.5 mg/kg): −218%; Mean (TNFα) (TNFα [6]; single oral dose 2.5 mg/kg): 416.6 pg/mL; % Decrease of IL-1β vs. Vehicle (IL-1β; single oral dose 0.25 mg/kg, 0.25 mg/kg): 71.0%; % Decrease of IL-1β vs. Vehicle (IL-1β; single oral dose 1 mg/kg, 1 mg/kg): 99.0%; % Decrease of IL-1β vs. Vehicle (IL-1β; single oral dose 2.5 mg/kg, 2.5 mg/kg): 99.2% |
| CO[C@@H]1COc2c(S(=O)(=O)NC(=O)Nc3c4c(cc5c3CCC5)CCC4)cnn2C1 |  | No Curve | 0.2 | 100 to 1000 | 100 to 1000 | 100 to 1000 |  |  |  |  |
| O=S(=O)(NC(=S)Nc1c2c(cc3c1CCC3)CCC2)c1cnn2c1OCCC2 [Compound 3, N-((1,2,3,5,6,7-hexahydro-s-indacen-4-yl)carbamothioyl)-6,7-dihydro-5H-pyrazolo[5,1-b][1,3]oxazine-3-sulfonamide] |  |  |  |  |  |  | 781.8 | 57.7 | 14.6 | IL-1β production in PBMCs (FIG. 1) (NLRP3 inflammasome [3]): inhibition; % Decrease of IL-1β vs. Vehicle (IL-1β; single oral dose 0.25 mg/kg): 53.0%; % Decrease of IL-1β vs. Vehicle (IL-1β; single oral dose 1 mg/kg): 96.5%; % Decrease of IL-1β vs. Vehicle (IL-1β; single oral dose 2.5 mg/kg): 99.1% |
